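At the GI50, growth is halved. TGI denotes the concentration required for complete inhibition of growth.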
Legend:
Experiment in all cases: NCI anticancer screen, dose series, 384-well format
[1] = system: SK-MEL-5 melanoma
[2] = system: HOP-92 NSCLC
[3] = system: ACHN renal
[4] = system: MDA-MB-231 breast
[5] = system: SK-MEL-28 melanoma
[6] = system: CCRF-CEM leukemia
[7] = system: MDA-MB-435 melanoma
[8] = system: OVCAR-3 ovarian
[9] = system: HL-60(TB) leukemia
[10] = system: RXF 393 renal
[11] = system: OVCAR-8 ovarian
[12] = system: LOX IMVI melanoma
[13] = system: SF-268 CNS
[14] = system: UACC-257 melanoma
[15] = system: HOP-62 NSCLC
[16] = system: HCT-15 colon
[17] = system: U251 glioblastoma
[18] = system: COLO 205 colon
[19] = system: SW-620 colon
[20] = system: SR leukemia
[21] = system: DU-145 prostate
[22] = system: NCI/ADR-RES ovarian
[23] = system: BT-549 breast
[24] = system: TK-10 renal
[25] = system: HT29 colon
[26] = system: SF-539 CNS
[27] = system: HS 578T breast
[28] = system: MCF7 breast
[29] = system: M14 melanoma
[30] = system: MALME-3M melanoma
[31] = system: 786-0 renal
[32] = system: NCI-H226 lung
[33] = system: NCI-H322M lung
[34] = system: SNB-19 CNS
[35] = system: SN12C renal
[36] = system: A498 renal
[37] = system: NCI-H23 lung
[38] = system: HCT-116 colon
[39] = system: SNB-75 CNS
[40] = system: UO-31 renal
[41] = system: HCC-2998 colon
[42] = system: K-562 leukemia
[43] = system: PC-3 prostate
[44] = system: MOLT-4 leukemia
[45] = system: IGROV1 ovarian
[46] = system: OVCAR-4 ovarian
[47] = system: T-47D breast
[48] = system: NCI-H460 NSCLC
[49] = system: NCI-H522 lung
[50] = system: SF-295 CNS
[51] = system: MDA-MB-468 breast
[52] = system: A549 NSCLC
[53] = system: RPMI-8226 leukemia
[54] = system: KM12 colon
[55] = system: EKVX NSCLC
[56] = system: SK-OV-3 ovarian
[57] = system: CAKI-1 renal
[58] = system: OVCAR-5 ovarian
[59] = system: UACC-62 melanoma

For `CN1CCC(CNc2ccc3ncc(-c4cccc(OC(F)(F)F)c4)n3n2)CC1`, the GI50 [1] was 1120 nM, the TGI [1] was 2330 nM and the GI50 [2] was 1650 nM. It also gave a TGI [2] of 3.02 µM, a GI50 [3] of 1590 nM and a TGI [3] of 2.96 µM. It also gave a GI50 [4] of 1610 nM, a TGI [4] of 2.97 µM and a GI50 [5] of 1750 nM. It also gave a TGI [5] of 3.13 µM, a GI50 [6] of 1800 nM and a TGI [6] of 3.21 µM. For the same compound, the GI50 [7] was 1.71 µM, the TGI [7] was 3.1 µM and the GI50 [8] was 1620 nM. It also gave a TGI [8] of 3.01 µM, a GI50 [9] of 1250 nM and a TGI [9] of 2530 nM. The GI50 [10] was 1350 nM, the TGI [10] was 2.64 µM and the GI50 [11] was 1610 nM. The TGI [11] was 2.99 µM, the GI50 [12] was 1740 nM and the TGI [12] was 3.14 µM. It also gave a GI50 [13] of 1.65 µM, a TGI [13] of 3.04 µM and a GI50 [14] of 1620 nM. For the same compound, the TGI [14] was 2.98 µM, the GI50 [15] was 1620 nM and the TGI [15] was 3 µM. For the same compound, the GI50 [16] was 1580 nM, the TGI [16] was 2.97 µM and the GI50 [17] was 1810 nM. The TGI [17] was 3.22 µM, the GI50 [18] was 1.79 µM and the TGI [18] was 3.19 µM. The GI50 [19] was 1.6 µM, the TGI [19] was 2.98 µM and the GI50 [20] was 1250 nM. The TGI [20] was 2.52 µM, the GI50 [21] was 2.05 µM and the TGI [21] was 4.51 µM. For the same compound, the GI50 [22] was 1.62 µM, the TGI [22] was 3.02 µM and the GI50 [23] was 1400 nM. The TGI [23] was 2.71 µM, the GI50 [24] was 1.7 µM and the TGI [24] was 3.11 µM. For the same compound, the GI50 [25] was 1.66 µM, the TGI [25] was 3.09 µM and the GI50 [26] was 1530 nM. The TGI [26] was 2.87 µM, the GI50 [27] was 1590 nM and the TGI [27] was 2.95 µM. The GI50 [28] was 1450 nM, the TGI [28] was 2800 nM and the GI50 [29] was 1490 nM. The TGI [29] was 2.82 µM, the GI50 [30] was 1560 nM and the TGI [30] was 2910 nM. It also gave a GI50 [31] of 1660 nM, a TGI [31] of 3050 nM and a GI50 [32] of 1480 nM. For the same compound, the TGI [32] was 2.82 µM, the GI50 [33] was 1920 nM and the TGI [33] was 3.8 µM. The GI50 [34] was 1.74 µM, the TGI [34] was 3.17 µM and the GI50 [35] was 1.55 µM. The TGI [35] was 2.91 µM, the GI50 [36] was 1420 nM and the TGI [36] was 2.73 µM. For the same compound, the GI50 [37] was 1540 nM, the TGI [37] was 2.94 µM and the GI50 [38] was 1590 nM. For the same compound, the TGI [38] was 2.98 µM, the GI50 [39] was 1500 nM and the TGI [39] was 2.86 µM. For the same compound, the GI50 [40] was 1660 nM, the TGI [40] was 3.04 µM and the GI50 [41] was 1430 nM. It also gave a TGI [41] of 2.76 µM, a GI50 [42] of 1630 nM and a TGI [42] of 3.04 µM. It also gave a GI50 [43] of 1260 nM, a TGI [43] of 2.62 µM and a GI50 [44] of 1310 nM. The TGI [44] was 2.59 µM, the GI50 [45] was 1550 nM and the TGI [45] was 2.94 µM. For the same compound, the GI50 [46] was 1.74 µM, the TGI [46] was 3.19 µM and the GI50 [47] was 1770 nM. For the same compound, the TGI [47] was 3.17 µM, the GI50 [48] was 1.71 µM and the TGI [48] was 3.15 µM. The GI50 [49] was 1.56 µM, the TGI [49] was 2.9 µM and the GI50 [50] was 1.45 µM. It also gave a TGI [50] of 2.78 µM, a GI50 [51] of 1100 nM and a TGI [51] of 2.31 µM. The GI50 [52] was 1.72 µM, the TGI [52] was 3.12 µM and the GI50 [53] was 1370 nM. The TGI [53] was 2.67 µM, the GI50 [54] was 375 nM and the TGI [54] was 1.42 µM. For the same compound, the GI50 [55] was 1.48 µM, the TGI [55] was 2.9 µM and the GI50 [56] was 1.67 µM. It also gave a TGI [56] of 3.05 µM, a GI50 [57] of 1380 nM and a TGI [57] of 2.71 µM. For the same compound, the GI50 [58] was 1.61 µM and the TGI [58] was 3.21 µM.
Compound `O=C(c1ccc(OCCN2CCCCC2)cc1)c1c(-c2ccc(O)cc2)sc2cc(O)ccc12` has a GI50 [1] of 1490 nM, a TGI [1] of 3210 nM and a GI50 [2] of 2040 nM. The TGI [2] was 5.03 µM, the GI50 [3] was 4020 nM and the TGI [3] was 12.9 µM. For the same compound, the GI50 [4] was 2200 nM, the TGI [4] was 4.97 µM and the GI50 [5] was 2540 nM. For the same compound, the TGI [5] was 7.63 µM, the GI50 [7] was 4.38 µM and the TGI [7] was 10.9 µM. For the same compound, the GI50 [8] was 4330 nM, the TGI [8] was 16.6 µM and the GI50 [9] was 1830 nM. It also gave a TGI [9] of 3250 nM, a GI50 [10] of 2290 nM and a TGI [10] of 5.12 µM. It also gave a GI50 [11] of 4040 nM, a TGI [11] of 14 µM and a GI50 [12] of 1840 nM. It also gave a TGI [12] of 3.43 µM, a GI50 [13] of 5.08 µM and a TGI [13] of 17.2 µM. It also gave a GI50 [14] of 1960 nM, a TGI [14] of 3.61 µM and a GI50 [15] of 3310 nM. It also gave a TGI [15] of 10.8 µM, a GI50 [16] of 1260 nM and a TGI [16] of 3.51 µM. For the same compound, the GI50 [17] was 4070 nM, the TGI [17] was 13.4 µM and the GI50 [18] was 17.1 µM. The TGI [18] was 30.9 µM, the GI50 [19] was 12.5 µM and the TGI [19] was 25.1 µM. The GI50 [20] was 3150 nM, the TGI [20] was 4.65 µM and the GI50 [21] was 10.8 µM. The TGI [21] was 22.7 µM, the GI50 [22] was 4.4 µM and the TGI [22] was 15.1 µM. It also gave a GI50 [23] of 1590 nM, a TGI [23] of 3.74 µM and a GI50 [24] of 9.63 µM. For the same compound, the TGI [24] was 21.4 µM, the GI50 [25] was 5.05 µM and the TGI [25] was 16.8 µM. It also gave a GI50 [26] of 3270 nM, a TGI [26] of 11.3 µM and a GI50 [27] of 2500 nM. It also gave a TGI [27] of 6.72 µM, a TGI [28] of 2780 nM and a GI50 [59] of 5.22 µM. It also gave a TGI [59] of 17.3 µM, a GI50 [29] of 2090 nM and a TGI [29] of 3.88 µM. For the same compound, the GI50 [30] was 1480 nM, the TGI [30] was 2830 nM and the GI50 [31] was 1550 nM. The TGI [31] was 2940 nM, the GI50 [32] was 3270 nM and the TGI [32] was 11.2 µM. For the same compound, the GI50 [33] was 1860 nM, the TGI [33] was 4.78 µM and the GI50 [34] was 11.7 µM. For the same compound, the TGI [34] was 24.1 µM, the GI50 [35] was 12.6 µM and the TGI [35] was 25.2 µM. The GI50 [36] was 2110 nM, the TGI [36] was 4.43 µM and the GI50 [37] was 3460 nM. For the same compound, the TGI [37] was 12.7 µM, the GI50 [38] was 3390 nM and the TGI [38] was 12.3 µM. The GI50 [39] was 2690 nM, the TGI [39] was 8.46 µM and the GI50 [40] was 2590 nM. For the same compound, the TGI [40] was 7.34 µM, the GI50 [41] was 3710 nM and the TGI [41] was 12.3 µM. It also gave a GI50 [43] of 2170 nM, a TGI [43] of 4.97 µM and a GI50 [44] of 1800 nM. For the same compound, the TGI [44] was 4.59 µM, the GI50 [45] was 2750 nM and the TGI [45] was 7.87 µM. For the same compound, the GI50 [46] was 8.87 µM, the TGI [46] was 20.6 µM and the GI50 [48] was 8.87 µM. For the same compound, the TGI [48] was 21 µM, the GI50 [49] was 7.17 µM and the TGI [49] was 19.7 µM. For the same compound, the GI50 [50] was 12.8 µM, the TGI [50] was 25.5 µM and the GI50 [51] was 3080 nM. The TGI [51] was 7.65 µM, the GI50 [52] was 4.42 µM and the TGI [52] was 15.4 µM. It also gave a GI50 [53] of 2780 nM, a TGI [53] of 5.32 µM and a GI50 [54] of 4090 nM. The TGI [54] was 12.7 µM, the GI50 [55] was 6.23 µM and the TGI [55] was 18.5 µM. The GI50 [56] was 9.94 µM, the TGI [56] was 21.6 µM and the GI50 [57] was 2150 nM. It also gave a TGI [57] of 5.11 µM, a GI50 [58] of 5.94 µM and a TGI [58] of 18.2 µM.

— PubChem BioAssay (NCI)
